Usually melting point stands for the temperature of the solid-liquid transition.

Structures are written as SMILES.

`CCCCS(=O)(=O)NC(=O)c1ccc2c(=O)n(Cc3ccc(Cl)cc3Cl)c(=O)n(C)c2c1` [Example 43, 7-(1-n-butanesulfonyl-carbamoyl)-3-(2,4-dichlorobenzyl)-1-methyl-2,4(1H,3H)-quinazolinedione] returned a melting point of 212 to 214 °C.

Compound `CCCCS(=O)(=O)NC(=O)c1ccc2c(=O)n(Cc3ccc(Cl)cc3Cl)cnc2c1` [Example 44, 7-(1-n-butanesulfonyl-carbamoyl)-3-(2,4-dichlorobenzyl)-4(3H)-quinazolinone] displayed a melting point of 245 to 247 °C.

Compound `CCCCS(=O)(=O)NC(=O)c1ccc2c(=O)n(C)c(Cc3ccc(Cl)cc3Cl)nc2c1` [Example 45, 7-(1-n-butanesulfonyl-carbamoyl)-2-(2,4-dichlorobenzyl)-3-methyl-4(3H)-quinazolinone] returned a melting point of 244 to 246 °C.

Take `CCCCCS(=O)(=O)NC(=O)c1ccc2c(=O)nc(C)n(Cc3ccc(Cl)cc3Cl)c2c1` [Example 47-1, 1-(2,4-dichlorobenzyl)-2-methyl-7-(1-n-pentanesulfonylcarbamoyl)-4(1H)-quinazolinone]: the melting point lay in the range of 168 to 170 °C.

As for `Cc1nc(=O)c2ccc(C(=O)NS(=O)(=O)c3ccccc3)cc2n1Cc1ccc(Cl)cc1Cl` [Example 47-2, 7-(benzenesulfonylcarbamoyl)-1-(2,4-dichlorobenzyl)-2-methyl-4(1H)-quinazolinone], the melting point is 214 to 216 °C.

Compound `CCCCS(=O)(=O)NC(=O)c1ccc2nc(C)c(=O)n(Cc3ccc(Cl)cc3Cl)c2c1` [Example 49, 7-(1-n-butanesulfonyl-carbamoyl)-1-(2,4-dichlorobenzyl)-3-methyl-2(1H)-quinoxalinone] registered a melting point of 223 to 225 °C.

As for `CCCCS(=O)(=O)NC(=O)c1ccc2c(c1)n(Cc1ccc(Cl)cc1Cl)c(=O)c(=O)n2C` [Example 50, 7-(1-n-butanesulfonyl-carbamoyl)-1-(2,4-dichlorobenzyl)-4-methyl-2,3-(1H, 4H)-quinoxalinedione], the melting point lay in the range of 243 to 246 °C.

The compound `Cc1nc2ccc(C(=O)NS(=O)(=O)c3ccccc3)cn2c1Cc1ccc(Cl)cc1Cl` [Example 56, 6-(benzenesulfonylcarbamoyl)-3-(2,4-dichlorobenzyl)-2-methylimidazo[1,2-a]pyridine] registered a melting point of 308 to 310 °C.

In turn, `Cc1nc2ccc(C(=O)NS(=O)(=O)/C=C/c3ccccc3)nc2n1Cc1ccc(Cl)cc1Cl` [Example 65-3, (E)-3-(2,4-dichlorobenzyl)-2-methyl-5-[(2-phenylethenyl)sulfonylcarbamoyl]-3H-imidazo[4,5-b]pyridine] came in with a melting point of 192 to 194 °C.

Regarding `Cc1nc2ccc(C(=O)NS(=O)(=O)c3ccc(Cl)s3)nc2n1Cc1ccc(Cl)cc1Cl` [Example 65-4, 5-((5-chlorothiophene-2-yl)sulfonylcarbamoyl)-3-(2,4-dichlorobenzyl)-2-methyl-3H-imidazo[4,5-b]pyridine], the melting point fell in the range of 206 to 207 °C.

For `Cc1nc2ccc(C(=O)NS(=O)(=O)c3ccc(Br)s3)nc2n1Cc1ccc(Cl)cc1Cl` [Example 65-5, 5-((5-bromothiophen-2-yl)sulfonylcarbamoyl)-3-(2,4-dichlorobenzyl)-2-methyl-3H-imidazo[4,5-b]pyridine], the melting point lay in the range of 168 to 169 °C.

`Cc1nc2ccc(C(=O)NS(=O)(=O)/C=C/c3ccccc3)nc2n1Cc1ccc(Br)cc1Cl` [Example 66-1, (E)-3-(4-bromo-2-chlorobenzyl)-2-methyl-5-[(2-phenylethenyl)sulfonylcarbamoyl]-3H-imidazo[4,5-b]pyridine]: the melting point lay within 204 to 205 °C.

`Cc1nc2ccc(C(=O)NS(=O)(=O)/C=C/c3ccccc3)nc2n1Cc1ccc(-c2ccccc2)cc1Cl` [Example 67-2, (E)-3-(2-chloro-4-phenylbenzyl)-2-methyl-5-[(2-phenylethenyl)sulfonylcarbamoyl]-3H-imidazo[4,5-b]pyridine] registered a melting point of 216 to 218 °C.

As to `Cc1nc2ccc(C(=O)NS(=O)(=O)c3ccc(Cl)s3)nc2n1Cc1ccc(-c2ccccc2)cc1Cl` [Example 67-3, 3-(2-chloro-4-phenylbenzyl)-5-[(5-chlorothiophene-2-yl)sulfonylcarbamoyl]-2-methyl-3H-imidazo[4,5-b]pyridine], the melting point is 210 to 212 °C.

The compound `Cc1nc2ccc(C(=O)NS(=O)(=O)c3ccc(Br)s3)nc2n1Cc1ccc(-c2ccccc2)cc1Cl` [Example 67-5, 5-[(5-bromothiophen-2-yl)sulfonylcarbamoyl]-3-(2-chloro-4-phenylbenzyl)-2-methyl-3H-imidazo[4,5-b]pyridine] came in with a melting point of 205 to 207 °C.

In the case of `Cc1nc2ccc(C(=O)NS(=O)(=O)c3ccccc3)nc2n1Cc1ccc(-c2cccs2)cc1Cl` [Example 68, 5-(benzenesulfonylcarbamoyl)-3-[2-chloro-4-(thiophen-2-yl)benzyl]-2-methyl-3H-imidazo[4,5-b]pyridine], the melting point was 225 to 226 °C.

With `Cc1nc2ccc(C(=O)NS(=O)(=O)c3ccccc3)nc2n1Cc1ccc(-c2ccc(Cl)s2)cc1Cl` [Example 69, 5-(benzenesulfonylcarbamoyl)-3-[2-chloro-4-(5-chlorothiophene-2-yl)benzyl]-2-methyl-3H-imidazo[4,5-b]pyridine], the melting point was 215 to 217 °C.

As to `CCCCCS(=O)(=O)NC(=O)c1ccc2nc(C)n(Cc3ccc(CC)cc3Cl)c2n1` [Example 70-1, 3-(2-chloro-4-ethylbenzyl)-2-methyl-5-(1-pentanesulfonylcarbamoyl)-3H-imidazo[4,5-b]pyridine], the melting point was in the range of 138 to 139 °C.

As to `CCc1ccc(Cn2c(C)nc3ccc(C(=O)NS(=O)(=O)c4ccccc4)nc32)c(Cl)c1` [Example 70-2, 5-(benzenesulfonylcarbamoyl)-3-(2-chloro-4-ethylbenzyl)-2-methyl-3H-imidazo[4,5-b]pyridine], the melting point was 167 to 168 °C.

In turn, `CCc1ccc(Cn2c(C)nc3ccc(C(=O)NS(=O)(=O)/C=C/c4ccccc4)nc32)c(Cl)c1` [Example 70-4, (E)-3-(2-chloro-4-ethylbenzyl)-2-methyl-5-[(2-phenylethenyl)sulfonylcarbamoyl]-3H-imidazo[4,5-b]pyridine] showed a melting point of 184 to 185 °C.

Compound `C=Cc1ccc(Cn2c(C)nc3ccc(C(=O)NS(=O)(=O)c4ccccc4)nc32)c(Cl)c1` [Example 71, 5-(benzenesulfonylcarbamoyl)-3-(2-chloro-4-vinylbenzyl)-2-methyl-3H-imidazo[4,5-b]pyridine] returned a melting point of 174 to 175 °C.

Regarding `Cc1ccc(Cn2c(C)nc3ccc(C(=O)NS(=O)(=O)c4ccccc4)nc32)c(Cl)c1` [Example 72, 5-(benzenesulfonylcarbamoyl)-3-(2-chloro-4-methylbenzyl)-2-methyl-3H-imidazo[4,5-b]pyridine], the melting point fell in the range of 213 to 215 °C.

For `CCCCCc1ccc(Cn2c(C)nc3ccc(C(=O)NS(=O)(=O)c4ccccc4)nc32)c(Cl)c1` [Example 73, 5-(benzenesulfonylcarbamoyl)-3-(2-chloro-4-(n-pentyl)benzyl)-2-methyl-3H-imidazo[4,5-b]pyridine], the melting point lay within 174 to 175 °C.

Compound `Cc1nc2ccc(C(=O)NS(=O)(=O)c3ccccc3)nc2n1Cc1ccc(CC(C)C)cc1Cl` [Example 74, 5-(benzenesulfonylcarbamoyl)-3-(2-chloro-4-isobutylbenzyl)-2-methyl-3H-imidazo[4,5-b]pyridine] gave a melting point of 183 to 184 °C.

(Values after patent US6911469B2, “Sulfonamide compounds and pharmaceutical use thereof” (Fujisawa Pharmaceutical Co., Ltd., priority 1997, dated 2005).)
